Results from US8361992B2 (Dekk-Tec, Inc., priority 2009, dated 2013).
Read-outs that look alike come from different tables or passages of the source.

What was measured:
[1] = tested on: Human glioblastoma cell line U251; settings: cited from earlier work
[2] = tested on: P388 CPA-resistant murine leukemia cell line; test: P388/CPA leukemia injected IP in mice; assay type: in vivo; settings: IP once per day for 5 days, 4-HOOI 90, IFOS 40, IPM 40 mg/kg/day
Method: (§2) Human breast cancer cell lines MX-1 and ZR75-1 were implanted subcutaneously (SC). Human glioblastoma cell line U251 was implanted intracranially (IC) and P388 CPA-resistant murine leukemia cell line was injected intraperitoneally (IP). For IC implanted tumor cells, treatment was begun 5-7 days post-inoculation. For SC tumors, treatment was begun when the tumor was palpable (5-10 days post-inoculation). Mice were treated with the indicated dose of drug intraperitoneally once per day for 5 days.

humans = settings: cited from earlier work
[3] = tested on: Human breast cancer cell line MX-1; test: MX-1 xenograft implanted SC in mice; assay type: in vivo; settings: IP once per day for 5 days; for MX-1 T-C: 4-HOOI 90, IFOS 40, IPM 40 mg/kg/day
Method: as §2

OVCAR-3 Ovarian = test: OVCAR-3 xenograft (sc); assay type: in vivo, human; settings: sc implant; intraperitoneal treatment; MTD
Method: (§1) 4-HOOI was tested against a number of additional solid tumor xenografts and leukemias.

[4] = for AUC values for acrolein (trapezoidal rule): 0-120, IV CPA 250, IFOS 400, 4-HOOI 100 mg/kg
Method: Half of each plasma sample was lyophilized to collect ACR in a dry ice/methanol-cooled trap. […] For chloroacetaldehyde, the other half of the plasma sample was treated directly with the above trapping agent and the same procedure was used (6 mins) compared with synthetic controls.

[5] = tested on: Human breast cancer cell line ZR75-1; test: ZR-75-1 xenograft implanted SC in mice; assay type: in vivo; settings: IP once per day for 5 days, 4-HOOI 90, IFOS 40 mg/kg/day
Method: as §2

SAOS-2 Osteosarcoma = test: SAOS-2 xenograft (sc); assay type: in vivo, human; settings: sc implant; intraperitoneal treatment; MTD
Method: as §1

[6] = tested on: Sprague Dawley female rats; test: Rat neurobehavioral modified Morris water maze and pathology; assay type: in vivo; settings: for Pathology five days later (gross, confirmed by histology) / Memory and learning time intervals: single IP dose: IFOS 400, 4-HOOI 200, 4-HOOI.Lys 300 mg/kg; for Memory and learning time intervals: 1, 2, 3, 20 hours post-dosing
Method: Rat Dosing: Neuro-oncology studies with 4-HOOI were conducted to evaluate the product as compared to ifosfamide in a rat neurobehavioral modified Morris water maze. Ifosfamide produces coma and neuro-edema in high doses. […] Timings (six at each time) were measured at 1, 2, 3, and 20 hours post-dosing to monitor learning and memory. […] Histological examinations confirmed the gross observations.

Rat glioma 9 L cells = test: 9L rat glioma implanted subcutaneously in rats; settings: doses as in Table 7
Method: Rat glioma 9 L cells (10^6 cells) were implanted subcutaneously in female Hsd:SD rats. […] Temozolomide (TMZ) was administered orally three times, four days apart. The rats were followed for 54 days.

9 L rat glioma cells = test: Activity in vitro against 9L rat glioma cells in culture; assay type: cell-based; settings: for IC50: dose range 0.1-1.00 μg/ml
Method: The IC50 for each compound and also ifosfamide was determined (Table 3).

[7] = tested on: NCI-H69 Small cell lung carcinoma; test: NCI-H69 xenograft (sc); assay type: in vivo, human; settings: sc implant; intraperitoneal treatment; MTD
Method: as §1

SK-MEL-31 Melanoma = test: SK-MEL-31 xenograft (sc); assay type: in vivo, human; settings: sc implant; intraperitoneal treatment; MTD
Method: as §1

mice = test: Mouse IV dosing toxicology; assay type: in vivo
Method: Specific emphasis was placed on documenting potential toxicities associated with IV administered peroxides, namely convulsions, hemolysis, arterial gas emboli-pulmonary damage, and neurological pathology.
Ranges of dosing were 60-400 mg/kg. […] Animals were monitored for 14 days post treatment.

[8] = tested on: Human glioblastoma cell line U251; test: U251 glioblastoma implanted intracranially in mice; settings: in vivo
Method: as §2

[9] = tested on: NCI-H23 Non-small cell lung carcinoma; test: NCI-H23 xenograft (sc); assay type: in vivo, human; settings: sc implant; intraperitoneal treatment; MTD
Method: as §1

[10] = Stability profile of bulk 4-HOOI vs. 4-HOOI.Lys (HPLC, NMR)

O=NN(CCCl)C(=O)NCCCl [BCNU, bis-chloronitrosourea]
ILS ([1]; gold standard for the treatment of gliomas): 72 % ILS

O=P(O)(NCCCl)NCCCl [IPM, isophosphoramide mustard]
P388/CPA (% ILS) [2]: +85 % ILS
Dose limiting toxicity in humans (humans): renal tubular necrosis was dose limiting
MX-1 T-C [3]: 2.1 days

COc1nc(C(Cl)(Cl)Cl)c(Cl)c(OC(=O)O[C@H]2CC[C@@]3(C)C(=CC[C@H]4[C@@H]5CC[C@H]([C@H](C)CCCC(C)C)[C@@]5(C)CC[C@@H]43)C2)c1Cl [DM-CHOC-PEN, 4-demethylcholesteryloxycarbonylpenclomedine]
LTS in U251 glioblastoma ([1]; Morgan et al. 2009): 52 % LTS

O=P1(NCCCl)OCCCN1CCCl (stereo not shown) [IFOS, ifosfamide]
T-C (Days Delay), OVCAR-3 (OVCAR-3 Ovarian): 12.4 days
AUC values for acrolein (trapezoidal rule) [4]: 960 mg·min/mL
Urinary hemorrhagic cystitis ([4]; mice): the pathology occurred at day 5 post dosing
ZR-75-1 CR (complete response) [5]: (17% CR)
ZR-75-1 T-C [5]: >43.8 days
T-C (Days Delay), SAOS-2 (SAOS-2 Osteosarcoma): >61.9 days
Clinical signs ([6]; IFOS 400 mg/kg single IP dose): shakes and tremors
Bone marrow evaluations ([6]; IFOS 400 mg/kg single IP dose, five days later): pancytopenia
Pathology five days later (gross, confirmed by histology) [6]: hemorrhagic cystitis with gross bleeding
Memory and learning time intervals [6]: normal learning behavioral patterns
Hematuria (Rat glioma 9 L cells; rats bearing 9L glioma): observed
Notes (9 L rat glioma cells): Inactive without
IC50 (9 L rat glioma cells; Glioma cell, read-out: IC50): > 1 µg/mL
T-C (Days Delay), NCI-H69 [7]: 6.2 days
T-C (Days Delay), SK-MEL-31 (SK-MEL-31 Melanoma): 10.9 days
P388/CPA (% ILS) [2]: +42 % ILS
Highest tolerated single IV dose (mice): 400 mg/kg
U251 CR (complete response, animals) [8]: (0/5 CR)
U251 T-C [8]: 50 days
T-C (Days Delay), NCI-H23 [9]: 13.7 days
MX-1 LTS (long term survivors) ([3]; 4-HOOI 90, IFOS 40 mg/kg/day): (No LTS)
MX-1 T-C [3]: 8.6 days

NCCCCC(N)C(=O)O.O=P1(NCCCl)OCCC(OO)N1CCCl (stereo not shown) [4-HOOI•Lys]
NMR ([10]; Time 0): Stable
NMR ([10]; Time 2 months): Stable
NMR ([10]; Time 4 months): Stable
NMR ([10]; Time 6.5 months): Stable
NMR ([10]; Time 10 months): Stable
Pathology five days later (gross, confirmed by histology) [6]: did not reveal hemorrhagic cystitis, renal tubular necrosis, or bone marrow depletion
Memory and learning time intervals [6]: no significant differences
CR (animals) (Rat glioma 9 L cells; SC in female Hsd:SD rats, followed 54 days): 9/9
Hematuria (Rat glioma 9 L cells; rats bearing 9L glioma): No hematuria
Weight loss (Rat glioma 9 L cells; rats bearing 9L glioma): No weight loss
Notes (9 L rat glioma cells): Stabilized form prevented
IC50 (9 L rat glioma cells): >1.0 µg/mL

O=P1(N(CCCl)CCCl)NCCCO1 (stereo not shown) [CPA, cyclophosphamide]
AUC values for acrolein (trapezoidal rule) [4]: 1520 mg·min/mL
